# According to US4317775A (Hoffmann-La Roche Inc., priority 1980, dated 1982):
# Where “and” joins values, the source holds several entries; their conditions need not be identical. Identical values can stand only once. Counter-ions that a name gives are not always drawn. Like-named read-outs stand apart in the source and are kept apart here.
# Columns and labels:
# S. pyogenes = test: In vivo activity against systemic infection in mice, S. pyogenes
# Source text: (§1) The PD50 is the protective dose for 50% of the animals treated against a challenge organism.
# S. pneumoniae II = test: In vivo activity against systemic infection in mice, S. pneumoniae II
# Source text: as §1
# P. mirabilis = test: In vivo activity against systemic infection in mice, P. mirabilis; settings: in mg/kg
# Source text: as §1
# Streptococcus pyogenes = test: In vitro activity (MIC/MBC), Streptococcus pyogenes; format: cell-based
# Source text: (§2) MIC is the Minimum Inhibitory Concentration. MBC is the Minimum Bactericidal Concentration.
# (§3) Results reported in Table 3(a) are reported as MIC defined above and results reported in Table 3(b) are reported as MBC defined above.
# Staphylococcus aureus = test: In vitro activity (MIC/MBC), Staphylococcus aureus; format: cell-based
# Source text: as §2, §3
# in vivo = settings: mouse
# Proteus vulgari = test: In vitro activity (MIC/MBC), Proteus vulgari; format: cell-based; settings: for MBC: read-out: Minimum Inhibitory Concentration (MBC); for MIC: read-out: Minimum Inhibitory Concentration (MIC)
# Source text: as §2, §3
# Klebsiella pneumoniae = test: In vitro activity (MIC/MBC), Klebsiella pneumoniae; format: cell-based; settings: for MIC: read-out: Minimum Inhibitory Concentration (MIC)
# Source text: as §2, §3
# E. coli = test: In vivo activity against systemic infection in mice, E. coli; settings: in mg/kg
# Source text: as §1
# Escherichia coli = test: In vitro activity (MIC/MBC), Escherichia coli; format: cell-based
# Source text: as §2, §3
# K. pneumoniae = test: In vivo activity against systemic infection in mice, K. pneumoniae; settings: in mg/kg
# Source text: as §1
# S. pneumoniae I = test: In vivo activity against systemic infection in mice, S. pneumoniae I
# Source text: as §1
# P. aeruginosa = test: In vivo activity against systemic infection in mice, P. aeruginosa
# Source text: as §1
# S. aureus = test: In vivo activity against systemic infection in mice, S. aureus; settings: in mg/kg
# Source text: as §1
# Salmonella typhosa = test: In vitro activity (MIC/MBC), Salmonella typhosa; format: cell-based; settings: Salmonella enterica
# Source text: as §2, §3
# [1] = test system: Salmonella schottmuelleri; test: In vitro activity (MIC/MBC), Salmonella schottmuelleri; format: cell-based
# Source text: as §2, §3
# [2] = test system: Streptococcus pneumonia II; test: In vitro activity (MIC/MBC), Streptococcus pneumonia II; format: cell-based; settings: Streptococcus pneumoniae
# Source text: as §2, §3
# [3] = test system: Streptococcus pneumoniae I; test: In vitro activity (MIC/MBC), Streptococcus pneumoniae I; format: cell-based; settings: MBC, read-out: Minimum Inhibitory Concentration (MBC)
# Source text: as §2, §3
# [4] = MBC, read-out: Minimum Inhibitory Concentration (MBC)
# [5] = read-out: Minimum Inhibitory Concentration (MIC)
smiles,measurement,setting,value
"CC1(C)S[C@@H]2[C@H](NC(=O)[C@H](NC3CCCS3)c3ccc(O)cc3)C(=O)N2[C@H]1C(=O)O (relative stereo) [Compound III, {2S-[2α,5α,6β(S*)]}-6-{[tetrahydro-2-thienylamino-(4-hydroxyphenyl)acetyl]amino}-3,3-dimethyl-7-oxo-4-thia-1-azabicyclo[3.2.0]heptane-2-carboxylic acid sodium salt]",PD50,S. pyogenes; oral,6.3 mg/kg
same,PD50,S. pyogenes; subcutaneous,4.1 mg/kg
same,PD50,S. pneumoniae II; oral,3.2 mg/kg
same,PD50,S. pneumoniae II; subcutaneous,3.2 mg/kg
same,PD50,P. mirabilis; oral,3.8
same,PD50,P. mirabilis; subcutaneous,2.5
same,MBC,Streptococcus pyogenes; [4],> 8.88 µg/mL
same,MIC,Streptococcus pyogenes; [5],0.554 µg/mL
same,MBC,Staphylococcus aureus; [4],0.138 µg/mL
same,MIC,Staphylococcus aureus; [5],0.138 µg/mL
same,LD50,in vivo; ip,668 mg/kg
same,LD50,in vivo; po,558 mg/kg
same,LD50,in vivo; sc,598 mg/kg
same,MBC,Proteus vulgari,0.554 µg/mL
same,MIC,Proteus vulgari,0.554 µg/mL
same,MBC,Klebsiella pneumoniae; [4],1.11 µg/mL
same,MIC,Klebsiella pneumoniae,0.554 µg/mL
same,PD50,E. coli; oral,18.7
same,PD50,E. coli; subcutaneous,19.4
same,MBC,Escherichia coli; [4],4.44 µg/mL
same,MIC,Escherichia coli; [5],4.44 µg/mL
same,PD50,K. pneumoniae; oral,15.5
same,PD50,K. pneumoniae; subcutaneous,5.3
same,PD50,S. pneumoniae I; oral,4.7 mg/kg
same,PD50,S. pneumoniae I; subcutaneous,2.5 mg/kg
same,PD50,P. aeruginosa; oral,> 142 mg/kg
same,PD50,P. aeruginosa; subcutaneous,> 142 mg/kg
"CC1(C)S[C@@H]2[C@H](NC(=O)[C@H](N)c3ccc(O)cc3)C(=O)N2[C@H]1C(=O)O [Amoxicillin, amoxicillin, reference compound]",LD50,"Acute toxicity in mice; mice, i.p.",3535 mg/kg and 3150 mg/kg
same,LD50,"Acute toxicity in mice; mouse, in vivo, ip, LD50, mice",3140 mg/kg
same,LD50,"Acute toxicity in mice; mouse, in vivo, po, LD50, mice",> 10000 mg/kg
same,LD50,"Acute toxicity in mice; mouse, in vivo, sc, LD50, mice",> 10000 mg/kg
same,PD50,S. aureus; oral,0.5 and 0.6
same,PD50,S. aureus; subcutaneous,< 0.2
same,PD50,P. mirabilis; oral,1.8 and 1.1
same,PD50,P. mirabilis; subcutaneous,< 0.5 and 0.6
same,MBC,Proteus vulgari,0.78 µg/mL
same,MIC,Proteus vulgari,1.56 µg/mL
same,MBC,"Salmonella typhosa; read-out: Minimum Inhibitory Concentration (MBC), MBC, Salmonella typhosa",0.39 µg/mL
same,MIC,"Salmonella typhosa; read-out: Minimum Inhibitory Concentration (MIC), Salmonella typhosa",0.39 µg/mL
same,MBC,"[1]; MBC, Salmonella schottmuelleri, read-out: Minimum Inhibitory Concentration (MBC)",0.78 µg/mL
same,MIC,"[1]; Salmonella, read-out: Minimum Inhibitory Concentration (MIC)",0.78 µg/mL
same,MIC,Klebsiella pneumoniae,0.39 µg/mL
same,PD50,E. coli; oral,14.1 and 18.5 and 19.3 and 13.1
same,PD50,E. coli; subcutaneous,10 and 5.9 and 7.3 and 6.8
same,MBC,[2]; [4],0.049 µg/mL
same,MIC,[2]; [5],0.024 µg/mL
same,MIC,Escherichia coli; [5],3.12 µg/mL
same,MIC,"Escherichia coli; read-out: Minimum Inhibitory Concentration (MIC), Escherichia coli",6.25 µg/mL
same,PD50,K. pneumoniae; subcutaneous,3.6 and 5 and 3.7
same,MBC,[3],0.024 µg/mL
same,PD50,P. aeruginosa; oral,> 200 mg/kg
same,PD50,P. aeruginosa; subcutaneous,> 200 mg/kg
